Measured values reported in patent publication US5492909A, “Triazolopyridazine derivatives, their production and use” (Takeda Chemical Industries, Ltd., priority 1993, dated 1996).

Test system: PAF-induced bronchoconstriction
Assay: Effect on bronchoconstriction induced by platelet activating factor (PAF) in guinea pigs (Konzett-Roessler method)
Format: in vivo, guinea pig (male Hartley)
Conditions: oral, 1 hour before PAF (1 μg/kg i.v.)
Experimental: [Effect on bronchoconstriction induced by platelet activating factor (PAF) in guinea pigs]
Male Hartley guinea pigs (body weights about 500 g) were used. The bronchoconstriction reaction in the guinea pig which has intravenously been administered with PAF (1 μg/kg) was measured by the Konzett-Roessler method.
The trachea of the guinea pig with its back fixed was incised under anesthesia condition with urethane (intravenous injection, 1.5 g/kg) and connected with an artificial respirator via a cannula. The branch of the tracheal cannula was connected with a transducer (7020 type, manufactured by Ugobasile). Air was sent to the trachea at the rate of 3 to 7 ml per stroke, 70 strokes/min. and at load pressure of 10 cm H2 O to lung, and overflowed air volume was recorded with Rectegraph (Recte-Hori-8s, Sanei Sokuki Co., Ltd., Japan) via transducer. After the guinea pig was treated with gallamine (intravenous injection, 1 mg/kg), 1 μg/kg of PAF dissolved in a physiological saline solution was administered to the guinea pig via jugular venous cannula and the bronchoconstriction reaction induced thereby was recorded for 15 minutes. The drug (3 mg/kg and 10 mg/kg respectively) suspended in a 5% gum arabic solution was administered orally 1 hour before the injection of PAF.

Structure (SMILES) | Inhibition (%) of PAF-induced bronchoconstriction (3 mg/kg) | Inhibition (%) of PAF-induced bronchoconstriction (10 mg/kg)
CCC(CC)(COc1cc(C)c2nncn2n1)CS(N)(=O)=O [Example 1, 6-(2,2-diethyl-3-sulfamoyl-1-propoxy)-8-methyl-[1,2,4]triazolo[4,3-b]pyridazine] | 85.8% | 100%
CCC(CC)(COc1ccc2nncn2n1)CS(N)(=O)=O [Example 3, 6-(2,2-diethyl-3-sulfamoyl-1-propoxy)[1,2, 4]triazolo[4,3-b]pyridazine] | 51.1% | 61.2%
CC(C)(COc1ccc2nncn2n1)CS(N)(=O)=O [Example 5, 6-(2,2-dimethyl-3-sulfamoyl-1-propoxy)[1,2,4]triazolo[4,3-b]pyridazine] | 22.4% | 41.2%
